The nature of data set [1]: EGF biological activity, test not specified. An excerpt:
C. […] EGF-D represents the 52-amino acid sequence obtained by removing the C-terminal arg, while EGF-B corresponds to EGF-D wherein the C-terminal arg-leu has been removed. EGF-C appears to be EGF-D in which Met21 has been oxidized, while EGF-A appears to be EGF-B with Met21 oxidized. EGF-D is reported to be stable when stored as a lyophilized powder.
EGF may also be altered by adding an N-terminal extension. EGF-flag (.phi.EGF) derivatives have the additional sequence […], which permits rapid purification of peptides by affinity chromatography on anti-flag MAb columns (International Biotechnology Inc.).

The target in data set [2] is T1, EGF receptor on fixed A431 cells (Homo sapiens, UniProt P00533).
T1 construct: Confluent A43 1 cells were fixed in 96-well microtiter plates using 0.05% formaldehyde; endogenous in cells; host or cells: A431 cells, formaldehyde-fixed
The data set is described as follows: Receptor affinity: binding to fixed A431 cells. Particulars: 1 nM, 2 hr at 37° C. Here is the method:
Confluent A43 1 cells were fixed in 96-well microtiter plates using 0.05% formaldehyde for 10 min at room temperature, then washed 3× with 200 μL PBS with 0.1% bovine serum albumin (BSA).
The wells were then washed 3× with 200 μL of PBS/0.1% BSA, detached, and counted in a gamma counter.

The test system of data set [3] is Human foreskin fibroblasts. The data set is described as follows: Mitogenicity: 3H-thymidine incorporation. The class given is cell-based. The procedure:
Mitogenicity was assayed substantially following the method described by D. J. Knauer et al, J Biol Chem (1984) 259:5623-31.
Human foreskin fibroblasts were obtained and frozen at the thirteenth passage. Thawed cells are trypsinized, pelleted, and resuspended in a medium containing DMEM, 5% FBS, 1 mM sodium pyruvate, 300 μg/mL L-glutamine, 100 U/mL penicillin, and 100 μg/mL streptomycin. The cells are counted using a hemocytometer and 0.4% trypan blue. The cell concentration is adjusted to 1×10^-5 cells/mL using the same medium, and dispensed onto microtiter plates (100 μL/well). The plates are incubated for 5 days in a tissue culture incubator.
EGF muteins prepared in Example 1 and native sequence EGF are dissolved to make 100 μg/mL solutions. These solutions are used to make serial dilutions of 20, 10, 5, 2.5, 1.25, 0.625, 0.3125, 0.15625, 0.078125, 0.0390625, 0.0195, and 0.00975 ng/mL. Ten μL of each dilution is added to a microtiter plate well, and the plates returned to the incubator and incubated at 37° C. for 18 hours. The cells are then pulsed with ^3 H-thymidine (^3 H-T), by adding 10 μL of ^3 H-T (100 μCi/mL) to each well, and incubating for 24 hours. The ^3 H-T is then expelled, and the plates rinsed twice with PBS. To fix the cells, the plates are then incubated twice with 5% trichloroacetic acid (TCA) for 15 minutes at room temperature, followed by incubation twice with 100% MeOH. The plates are then air-dried.
The well contents are then solubilized using 0.3 N NaOH (50 μL/well) for 30 minutes, and transferred to scintillation vials. Scintillation fluid (Ready-Solv EP, 4 mL) is then added to each vial, and the vials counted for 1 min with a 0-1,000 (^3 H) window in a Beckman LS3801 counter.
For orientation: Dividing cells build labelled thymidine or BrdU into new DNA.

For data set [4] the following is noted: forms isolated from recombinant yeast culture; cited from earlier work.
For data set [5] the following is noted: stored as a lyophilized powder; cited from earlier work.

As to “.phi.EGF-E12: flag-extended EGF mutein with Glu for Gly12 (NSDSECPLSHDEYCLHDGVCMYIEALDKYACNCVVGYIGERCQYRDLKWWELR; not fully specified; Epidermal growth factor N-terminal FLAG extension; UniProt P01133 971-1023, looked up, variant G12E)”, the “biological activity of EGF-flag derivatives” value in data set [1] is “biologically active”.

Regarding “.phi.EGF-Q12: flag-extended EGF mutein with Gln at position 12 (NSDSECPLSHDQYCLHDGVCMYIEALDKYACNCVVGYIGERCQYRDLKWWELR; not fully specified; Epidermal growth factor N-terminal FLAG extension; UniProt P01133 971-1023, looked up, variant G12Q)”, the Affinity in data set [2] is recorded as 154 percentage of control (EGF). Besides, in data set [3], the Mitogenicity is 286 percentage of control (EGF).

In the case of “.phi.EGF-W13: flag-extended EGF mutein with Trp for Tyr13 (NSDSECPLSHDGWCLHDGVCMYIEALDKYACNCVVGYIGERCQYRDLKWWELR; not fully specified; Epidermal growth factor N-terminal FLAG extension; UniProt P01133 971-1023, looked up, variant Y13W)”, the Affinity in data set [2] is 73 percentage of control (EGF). Also, the Mitogenicity in data set [3] is 216 percentage of control (EGF). The “biological activity of EGF-flag derivatives” value in data set [1] is reported as “biologically active”.

As for “EFG: wild-type human epidermal growth factor, 53-amino acid protein; control of Table 1 [reference compound]”, in data set [3], the Mitogenicity is 100 percentage of control (EGF).

With “EGF-A15: EGF mutein with Ala at position 15”, the Mitogenicity in data set [3] is on record as 3 percentage of control (EGF).

Turning to “EGF-A41: EGF mutein with Ala at position 41”, the Mitogenicity in data set [3] is given as < 0.4 percentage of control (EGF).

Consider “EGF-A43: EGF mutein with Ala at position 43 (Glu43 replaced)”, for which, in data set [3], the Mitogenicity is listed as 63 percentage of control (EGF).

As to “EGF-B: EGF-D wherein the C-terminal arg-leu has been removed (NSDSECPLSHDGYCLHDGVCMYIEALDKYACNCVVGYIGERCQYRDLKWWE; not fully specified; Epidermal growth factor; UniProt P01133 971-1021, looked up, fragment)”, the EGF activity entry in data set [4] is “full EGF activity”.

Regarding “EGF-D: 52-amino acid sequence obtained by removing the C-terminal arg of EGF (NSDSECPLSHDGYCLHDGVCMYIEALDKYACNCVVGYIGERCQYRDLKWWEL; not fully specified; Epidermal growth factor; UniProt P01133 971-1022, looked up, fragment)”, the EGF activity entry in data set [4] is listed as “full EGF activity”. For the same substance, in data set [5], the stability on storage entry is reported as “stable”.

These data come from patent US5547935A (Chiron Corporation, priority 1994, dated 1996).
